Measurements from US5246935A, “Piperazinyl derivatives and methods of treating central nervous system ailments relating to the 5-HT2 receptor system” (Novo Nordisk A/S, priority 1990, dated 1993).
Counter-ions that a name gives are not always drawn.

Columns and labels:
[1] = target: T1, 5HT1A receptor (Rattus norvegicus, UniProt P19327); assay: In-Vitro inhibition of 5HT1A receptor binding (3H-8-OH-DPAT); parameters: species or system rat (male Wistar); conditions: 3H-8-OH-DPAT 1 nM, rat frontal cortex and hippocampus, 37° C., 10 min
T1 sequence (P19327 1-422): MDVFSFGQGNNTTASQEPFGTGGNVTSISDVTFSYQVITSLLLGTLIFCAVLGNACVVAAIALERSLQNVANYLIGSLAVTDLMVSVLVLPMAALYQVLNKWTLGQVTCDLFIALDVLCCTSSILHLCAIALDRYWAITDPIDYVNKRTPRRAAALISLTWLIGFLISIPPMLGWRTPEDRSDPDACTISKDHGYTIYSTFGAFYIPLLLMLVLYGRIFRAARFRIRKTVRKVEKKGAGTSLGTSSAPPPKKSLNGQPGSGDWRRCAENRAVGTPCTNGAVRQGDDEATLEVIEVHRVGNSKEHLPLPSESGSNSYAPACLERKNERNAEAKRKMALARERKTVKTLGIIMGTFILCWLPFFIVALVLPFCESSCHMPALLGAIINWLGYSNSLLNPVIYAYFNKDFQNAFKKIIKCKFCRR
Protocol: In-Vitro inhibition of 5HT1A receptor binding
(§1) Radioactive-labelled ligand ^3 H-80H-DPAT is incubated with isolated cell-membrane fragments at 37° C. for a given period of time. Following completed incubation, the incubate is filtered through GF/F filters which are rinsed after filtration to remove unspecifically adhered radioactivity. As opposed to low-molecular compounds, membrane fragments are not rinsed through the filters, the radioactivity bound to the filters indicates the amount of ligand bound specifically as well as nonspecifically to the membranes.
Male Wistar rats, 150-200 g are decapitated, and frontal cortex (approx. 200 mg) and hippocampus (approx. 70 mg) homogenized in 2×10 ml ice-cold DPAT buffer for 20 sec. applying polytron kinematica setting 6. Centrifuged at 20,000 rpm for 10 min. at 4° C. The pellet is transferred to 2×10 ml ice-cold DPAT buffer, homogenized for 20 sec. and preincubated for 10 min. at 37° C. Centrifuged at 20,000 rpm for 10 min. at 4° C. Final pellet added to 125×vol. of same buffer with 10 μM paragylin added (ex. 270 mg tissue in 33.75 ml DPAT buffer containing paragylin). Prepared fresh every day. Use within 30 minutes.
1,250 μl tissue 25 μl ^3 H-80H-DPAT (1 nM) 25 μl test substance/H2 O/blind serotonin (10 μM)
Incubation at 37° C. for 10 min.--at 10 sec. intervals. To the tubes is added 10 ml ice-cold 0.9% NaCl. Filtration through GF/F filters (use gloves). This procedure is repeated. Filters are placed in counting vials and 4 ml optiflow added (prepare in fume cupboard, use gloves). Counted at window 0-19 of the beta- counter (Pachard). Note that receptor box and lid are rinsed thoroughly in H2 O after use to avoid contamination. Further the analytical site is cleaned carefully every day.
(§2) Dissolved in H2 O, EtOH, MeOH or DMSO and further diluted in H2 O. The DPAT binding will stand concentrations of up to approx. 5% of these solvents without affecting the binding. Most stock solutions are stable at 4° C. Attention should, however, be paid to any precipitation, change in colour etc. Test-substance dilutions are always prepared fresh every day. When weighing out test substances, it is attempted to weigh out approx. 1 mg of substance. Less than 0.8 mg must never be weighed out and only infrequently more than 2 mg (for economy reasons) dependent, however on conc./assay.

[2] = target: T2, 5HT2 receptor (Rattus norvegicus, UniProt P14842); assay: In Vitro Inhibition of 5HT2-Receptor Binding (3H-Ketanserine); parameters: species or system rat (male Wistar); conditions: 3H-Ketanserine 0.4 nM, rat frontal cortex, 37° C., 15 min
T2 construct: incubated with isolated cell-membrane fragments; from tissue; host or cells: frontal cortex of male Wistar rats (membranes)
Protocol: In Vitro Inhibition of 5HT2 -Receptor Binding
as §1, with “H-Ketanserine” for “H-80H-DPAT”, “GF/B” for “GF/F”, “non-specifically” for “nonspecifically”
The preparation is made in ice bath. Polytron kinematica is rinsed with milli-Q-H2 O before and after use. Male Wistar rats, 150-200 g are decapitated. Frontal cortex is removed quickly and weighed (approx. 200 mg). Frontal cortex is added to centrifuging vial containing 10 ml ice-cold D2 buffer. Homogenization applying polytron kinematica (homogenizer) setting 6 for 20 sec. The homogenizer is rinsed with 10 ml D2 buffer in another centrifuging vial. The 10 ml rinsing buffer is added to the tissue vial. Centrifuged at 18,000 rpm for 10 min. at 4° C. Final pellet is transferred to 125×vol. of same buffer. (Ex. 200 mg in 25 ml D2 buffer). Can be stored for approx. 30 min. at 0° C.
25 μl ^3 H-Ketanserine (0.4 nM)
25 μl test substance/H2 O/blind cyproheptadine (2 μM)
Incubation for 15 min. at 37° C.
10 ml ice-cold 0.9% NaCl is added to the tubes. Filtration is performed through GF/B filters (use gloves). This procedure is repeated. Filters are placed in counting vials, and 4 ml opti- flour is added (prepare in fume cupboard, use gloves). Counting at window 0-19 of the beta-counter (Pachard). Note that receptor box and lid are rinsed thoroughly in H2 O after use to avoid contamination. Further the analytical site is cleaned carefully every day.
as §2, with “The 5HT2” for “The DPAT”, “always made” for “always prepared”, “test substance,” for “test substances,”, “dependent, however,” for “dependent, however”

T2 sequence (P14842 whole entry, the tested form may be a part): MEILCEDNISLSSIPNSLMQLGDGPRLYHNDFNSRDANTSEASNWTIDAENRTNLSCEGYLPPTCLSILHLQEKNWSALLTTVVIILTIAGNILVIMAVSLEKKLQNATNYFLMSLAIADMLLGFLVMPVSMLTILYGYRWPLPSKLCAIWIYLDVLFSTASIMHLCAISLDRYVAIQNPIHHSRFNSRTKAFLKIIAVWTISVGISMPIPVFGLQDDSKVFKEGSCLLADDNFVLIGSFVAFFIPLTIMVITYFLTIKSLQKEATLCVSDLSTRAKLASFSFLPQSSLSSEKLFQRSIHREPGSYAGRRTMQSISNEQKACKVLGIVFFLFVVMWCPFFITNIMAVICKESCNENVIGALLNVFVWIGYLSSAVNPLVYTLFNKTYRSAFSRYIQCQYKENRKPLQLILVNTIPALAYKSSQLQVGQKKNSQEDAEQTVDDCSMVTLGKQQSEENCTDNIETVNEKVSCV

Compound | IC50 [1] [nM] | IC50 [2] [nM]
COc1cc(NC(=O)OCCCN2CCN(c3ccccc3Cl)CC2)cc(OC)c1OC.Cl [Example 3, 4-(2-Chlorophenyl)-1-[3-(3,4,5-trimethoxyphenylcarbamoyloxy)propyl]piperazine, hydrochloride] | > 300 | 7.5
O=C(Nc1ccc2ncsc2c1)OCCCN1CCN(c2ccc(Cl)cc2)CC1 [Example 19, 4-(4-Chlorophenyl)-1-[3-(6-benzothiazolylcarbamoyloxy)propyl]piperazine, hydrochloride] | > 1000 | 22
COc1ccc2cccc(N3CCN(CCCOC(=O)Nc4ccc5c(c4)OCO5)CC3)c2c1 [Example 34, 1-(7-Methoxy-1-naphthyl)-4-[3-(3,4-methylenedioxyphenylcarbamoyloxy)propyl]piperazine, HCl] | 1.6 | 13
COc1cc(NC(=O)OCCCN2CCN(c3ccc(F)cc3)CC2)cc(OC)c1OC [Example 8, 4-(4-Fluorophenyl)-1-[3-(3,4,5-trimethoxyphenylcarbamoyloxy)propyl]piperazine, hydrochloride] | > 1000 | 10
